For data set [1], the system named is production of prostaglandin E2 (PGE2). The experiment in a line: Production of prostaglandin E2 (PGE2) in cultures of mouse peritoneal cells stimulated with LPS (ELISA kit). The settings on record: Table 3A, substance 50 μmol·l^−1, 6 h. The class given is cell-based, mice. In a few lines: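 C57BL/6 mouse peritoneal cells (3×10^6/mL) stimulated with LPS (10 ng/mL). PGE2 measured by ELISA.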

For data set [2], the system named is production of nitric oxide (NO). The experiment in a line: Production of nitric oxide (NO) in cultures of mouse peritoneal cells stimulated with IFN-γ plus LPS (Griess reagent). The class given is cell-based, mice. The settings on record: Table 3A; substance 50 μmol·l^−1; IFN-g plus LPS; 24 h. An outline of the steps: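 C57BL/6 mouse peritoneal cells (2×10^6/mL) stimulated with IFN-γ (5000 pg/mL) plus LPS (100 pg/mL), compounds at 50 μmol·l^−1. Nitrite measured by Griess reagent after 24 h, expressed as % of stimulated control (set 100%); IC50 is concentration reducing NO by 50%.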

In a further data set the test system is HUVEC. The experiment in a line: HUVEC cell proliferation (XTT assay). To be noted: 10 to 50 μmol/L, 8 hours. The class given is cell-based, human.
The subject of data set [3] is human umbilical vein endothelial cells (HUVEC). The experiment in a line: Tube formation assay of HUVEC on Matrigel (in vitro angiogenesis). The class given is cell-based. The settings on record: 8 h. From the text: This so called “Tube Formation Assay” is a method based on the ability of endothelial cells to form capillary-like tubular structures when cultured on Matrigel™ (a gel of basement membrane extract—their natural substrate). The process of capillary-like tube formation includes endothelial cell attachment, migration, and differentiation into tubules. In this experiment, treatment with tested compounds started at the time of seeding HUVEC onto Matrigel and the extent of tubule development was observed after an 8 h time period. Disruption of tube formation was then assessed through observation of the tubular network and direct comparison to solvent-only controls. The quantitative and qualitative measurement of tubular network complexity was performed using web-based S.CORE imaging software and expressed by means of number of tubes, their total length, quality, number of branching points, etc. All these parameters were integrated into “tube formation index” which corresponds to the degree of complexity of tubular network. […] At a 10 μmol/L concentration, compound 23 reduced tube formation by >90%. […] Apoptosis in HUVECs (at ˜70% confluency) treated with or without varying concentrations (relevant for the tube formation assay) of tested substances was assessed by a combination of Annexin V and JC-1 staining. After 8 h of these treatments, cells were collected, and the cell population undergoing apoptosis was identified by double-parameter flow cytometry using annexin V and the vital dye propidium iodide (PI). Mitochondrial membrane potential in treated endothelial cells was measured using the lypophilic probe JC-1, which aggregates in healthy mitochondria and fluoresces red, but diffuses in the cytoplasm and fluoresces green upon mitochondrial damage. In both cases, quantification of apoptotic cells were conducted in BD FACSDiva software.

A further data set concerns peritoneal cells of mice. The experiment in a line: Cell viability of mouse peritoneal cells (WST-1 kit). To be noted: Table 3A, substance 50 μmol·l^−1, 24 h. The class given is cell-based. In a few lines: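 C57BL/6 mouse peritoneal cells (1×10^6/mL) cultured 24 h with compounds at 50 μmol·l^−1. Viability read with WST-1 tetrazolium salt and expressed as percent of untreated control cells (100%).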

Regarding `CN(C)C=Nc1nc(Cl)c(Cc2ccccc2)c(Cl)n1` [Substance 23], the “Production of prostaglandins in % of the controls” value in data set [1] is 3.05 ± 1.26 % of the controls. The “Production of nitric oxide in % of the controls” value in data set [2] was 4.41 ± 0.59 % of the controls. The HUVEC cell proliferation entry in the data set with HUVEC is on record as “did not influence HUVEC cell proliferation”. In addition, in data set [3] (10 μmol/L), the “Effect on tube formation” value is reported as “tube disruption” and the “Reduction of tube formation” value is listed as over 90%. For the same molecule, in data set [3], the Capillary tube formation result is recorded as “inhibited capillary tube formation in a dose dependent manner” and the “Concentration from which antiangiogenic activity was apparent” value was at least 5 µmol/L. Also, the “Cell viability in % of the controls” value with peritoneal cells of mice is listed as 96.24 ± 11.9 % of the controls.
As for `CCCCc1c(Cl)nc(N=CN(C)C)nc1Cl` [Substance 19], the “Production of prostaglandins in % of the controls” value in data set [1] was 14.93 ± 3.11 % of the controls. For the same molecule, the “Production of nitric oxide in % of the controls” value in data set [2] is listed as 2.99 ± 0.53 % of the controls. Besides, the HUVEC cell proliferation entry with HUVEC is listed as “did not influence HUVEC cell proliferation”. Moreover, the “Effect on tube formation” value in data set [3] (10 μmol/L) is listed as “no inhibitory activity was detectable”; in data set [3] (25 μmol/L) it was “Partial differentiation”. For the same molecule, in data set [3], the Capillary tube formation result is “inhibited capillary tube formation in a dose dependent manner”. Further, the “Cell viability in % of the controls” value in the data set with peritoneal cells of mice was 123.21 ± 21.43 % of the controls.
In the case of `CC(C)c1c(Cl)nc(NC=O)nc1Cl` [Substance 53], the “Production of prostaglandins in % of the controls” value in data set [1] is 8.57 ± 0.99 % of the controls. Also, the “Production of nitric oxide in % of the controls” value in data set [2] was 0.70 ± 0.22 % of the controls. In addition, the HUVEC cell proliferation result in the data set with HUVEC is listed as “did not influence HUVEC cell proliferation”. Further, in data set [3] (10 μmol/L), the “Effect on tube formation” value was “only limited effect”. Moreover, the Incomplete tube formation in data set [3] (25 μmol/L) is recorded as about 46%. In data set [3], the Capillary tube formation result is “inhibited capillary tube formation in a dose dependent manner”. The “Cell viability in % of the controls” value with peritoneal cells of mice is 60.02 ± 0.29 % of the controls.

These data come from US8883798B2, “Pyrimidine compounds inhibiting the formation of nitric oxide and prostaglandin E2, method of production thereof and use thereof” (Ustav Organicke Chemie a Biochemie Akademie Ved CR, V.V.I., priority 2011, dated 2014).
